From ChEMBL document CHEMBL1201862, “PubChem BioAssay data set” (2004)
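96-well plates; 48 h exposure; 5 concentrations. Endpoints by linear interpolation between flanking doses. Not reached: highest tested concentration assigned. At the GI50, growth is halved.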 The source made the active and inactive calls. Rule as the data show it: active = GI50 up to about 1.1 µM and inactive = higher.

Assays:
Experiment in all cases: NCI anticancer screen, dose series, 48 h
[1] = test system: HOP-62
[2] = test system: U-251
[3] = test system: CAKI-1
[4] = test system: NCI-H23
[5] = test system: NCI-H460
[6] = test system: HCC 2998
[7] = test system: MOLT-4
[8] = test system: SW-620
[9] = test system: OVCAR-5
[10] = test system: 786-0
[11] = test system: UACC-257
[12] = test system: A498
[13] = test system: HL-60
[14] = test system: IGROV-1
[15] = test system: UO-31
[16] = test system: SF-539
[17] = test system: K562
[18] = test system: MDA-MB-231
[19] = test system: CCRF-CEM
[20] = test system: HOP-92

SMILES: CN(C)CCCNC(=O)N/N=C/c1ccc(O)cc1
- GI50 [1]: > 100 µM (inactive)
- GI50 [2]: > 100 µM (inactive)
- GI50 [3]: > 100 µM (inactive)
- GI50 [4]: > 100 µM (inactive)
- GI50 [5]: > 100 µM (inactive)
- GI50 [6]: > 100 µM (inactive)
- GI50 [7]: > 100 µM (inactive)
- GI50 [8]: > 100 µM (inactive)
- GI50 [9]: > 100 µM (inactive)
- GI50 [10]: > 100 µM (inactive)
- GI50 [11]: > 100 µM (inactive)
- GI50 [12]: > 100 µM (inactive)
- GI50 [13]: > 100 µM (inactive)
- GI50 [14]: > 100 µM (inactive)
- GI50 [15]: > 100 µM (inactive)
- GI50 [16]: > 100 µM (inactive)
- GI50 [17]: > 100 µM (inactive)
- GI50 [18]: > 100 µM (inactive)
- GI50 [19]: > 100 µM (inactive)

SMILES: O=c1[nH]/c(=C/c2cccs2)c(=O)[nH]/c1=C/c1ccc(OCc2ccccc2)cn1
- GI50 [1]: 0.033 µM (active)
- GI50 [2]: 0.0631 µM (active)
- GI50 [3]: 0.0312 µM (active)
- GI50 [4]: 0.0398 µM (active)
- GI50 [5]: 0.0351 µM (active)
- GI50 [6]: 0.0562 µM (active)
- GI50 [7]: 0.033 µM (active)
- GI50 [8]: 0.0361 µM (active)
- GI50 [9]: 3.87 µM (inactive)
- GI50 [10]: 0.061 µM (active)
- GI50 [11]: 0.116 µM (active)
- GI50 [12]: 0.0374 µM (active)
- GI50 [13]: < 0.0182 µM (active)
- GI50 [14]: 0.219 µM (active)
- GI50 [15]: 0.0207 µM (active)
- GI50 [16]: 0.123 µM (active)
- GI50 [17]: < 0.0156 µM (active)
- GI50 [18]: 0.219 µM (active)
- GI50 [19]: 0.0327 µM (active)

SMILES: COC(=O)C1=C(OC(=O)/C(=C/c2ccccc2)c2ccc(OC)cc2)C(C(=O)OC)[C@@]2(O)[C@@H](C(=O)OC)[C@H](C)C[C@@H]1[C@@H]2C(=O)OC (stereo partly specified)
- GI50 [1]: > 100 µM (inactive)
- GI50 [2]: 63.2 µM (inactive)
- GI50 [3]: > 100 µM (inactive)
- GI50 [4]: 50.1 µM (inactive)
- GI50 [5]: > 100 µM (inactive)
- GI50 [6]: > 100 µM (inactive)
- GI50 [7]: > 100 µM (inactive)
- GI50 [8]: > 100 µM (inactive)
- GI50 [9]: 65.6 µM (inactive)
- GI50 [10]: 26.1 µM (inactive)
- GI50 [11]: > 100 µM (inactive)
- GI50 [12]: > 100 µM (inactive)
- GI50 [13]: > 100 µM (inactive)
- GI50 [14]: 55.7 µM (inactive)
- GI50 [15]: > 100 µM (inactive)
- GI50 [16]: > 100 µM (inactive)
- GI50 [17]: > 100 µM (inactive)
- GI50 [18]: 18.7 µM (inactive)
- GI50 [19]: > 100 µM (inactive)

SMILES: Cc1cn(C2C=CC(COP(=O)(OCc3ccc([N+](=O)[O-])o3)N(C)CCCCCl)O2)c(=O)[nH]c1=O (stereo unspecified)
- GI50 [1]: 16 µM (inactive)
- GI50 [2]: 5.58 µM (inactive)
- GI50 [3]: 16 µM (inactive)
- GI50 [4]: 3.05 µM (inactive)
- GI50 [20]: 1.95 µM (inactive)
- GI50 [5]: 10 µM (inactive)
- GI50 [7]: 10.1 µM (inactive)
- GI50 [8]: 10.1 µM (inactive)
- GI50 [9]: 15.6 µM (inactive)
- GI50 [10]: 10.9 µM (inactive)
- GI50 [11]: 5.55 µM (inactive)
- GI50 [13]: 9.31 µM (inactive)
- GI50 [14]: 3.03 µM (inactive)
- GI50 [15]: 16.7 µM (inactive)
- GI50 [16]: 3.72 µM (inactive)
- GI50 [17]: 2.08 µM (inactive)
- GI50 [18]: 12.1 µM (inactive)
- GI50 [19]: 5.43 µM (inactive)

SMILES: COC(=O)[C@H]1C=C[C@@H](C)n2c(=O)c3cc4ccccc4cc3c(=O)n21
- GI50 [1]: > 100 µM (inactive)
- GI50 [2]: > 100 µM (inactive)
- GI50 [3]: > 100 µM (inactive)
- GI50 [4]: > 100 µM (inactive)
- GI50 [20]: > 100 µM (inactive)
- GI50 [5]: > 100 µM (inactive)
- GI50 [6]: > 100 µM (inactive)
- GI50 [7]: > 100 µM (inactive)
- GI50 [8]: > 100 µM (inactive)
- GI50 [9]: > 100 µM (inactive)
- GI50 [10]: > 100 µM (inactive)
- GI50 [11]: > 100 µM (inactive)
- GI50 [12]: > 100 µM (inactive)
- GI50 [13]: > 100 µM (inactive)
- GI50 [14]: > 100 µM (inactive)
- GI50 [15]: > 100 µM (inactive)
- GI50 [16]: > 100 µM (inactive)
- GI50 [17]: > 100 µM (inactive)
- GI50 [19]: > 100 µM (inactive)

SMILES: O/N=C1/C2CC3CC1(c1ccccc1)CC(/C3=N/O)/C2=N\O (stereo unspecified)
- GI50 [1]: > 100 µM (inactive)
- GI50 [2]: > 100 µM (inactive)
- GI50 [3]: > 100 µM (inactive)
- GI50 [4]: > 100 µM (inactive)
- GI50 [5]: > 100 µM (inactive)
- GI50 [6]: > 100 µM (inactive)
- GI50 [7]: > 100 µM (inactive)
- GI50 [8]: > 100 µM (inactive)
- GI50 [9]: > 100 µM (inactive)
- GI50 [10]: > 100 µM (inactive)
- GI50 [11]: > 100 µM (inactive)
- GI50 [12]: > 100 µM (inactive)
- GI50 [13]: > 100 µM (inactive)
- GI50 [15]: > 100 µM (inactive)
- GI50 [16]: > 100 µM (inactive)
- GI50 [17]: > 100 µM (inactive)
- GI50 [18]: > 100 µM (inactive)
- GI50 [19]: > 100 µM (inactive)

SMILES: COC(=O)C1=C(c2cc(OC)c(OC)c(OC)c2)OC(c2ccc(OC)c(OC)c2)C1 (stereo unspecified)
- GI50 [1]: 59.3 µM (inactive)
- GI50 [2]: 42 µM (inactive)
- GI50 [3]: > 100 µM (inactive)
- GI50 [4]: 78.2 µM (inactive)
- GI50 [20]: 42.5 µM (inactive)
- GI50 [5]: 39.5 µM (inactive)
- GI50 [6]: 54.7 µM (inactive)
- GI50 [7]: 18.9 µM (inactive)
- GI50 [8]: 33.5 µM (inactive)
- GI50 [9]: > 100 µM (inactive)
- GI50 [10]: 73.3 µM (inactive)
- GI50 [11]: 40.6 µM (inactive)
- GI50 [12]: 22.6 µM (inactive)
- GI50 [13]: 27.4 µM (inactive)
- GI50 [14]: 61.1 µM (inactive)
- GI50 [15]: 38.9 µM (inactive)
- GI50 [16]: 42.9 µM (inactive)
- GI50 [17]: 45.1 µM (inactive)
- GI50 [19]: 60.1 µM (inactive)
